How the values were obtained:
[1] = test system: mRNA expressed from the genes (A) to (D) in rat liver; assay: Behavior of genes (mRNA expression level, oligo-DNA microarray) in rat liver after 28-day oral administration; format: in vivo
In short: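 Groups of four male F344 SPF rats aged 5 weeks are gavaged once a day for 28 days with test chemical in solvent or with solvent alone at equal volume. Total RNA comes from liver taken on day 28. Fold change of 1.5 or 1/1.5 versus control, directionally consistent, defines significance.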

[2] = test system: liver; conditions: classification Cr+/Cr−; cited from earlier work
[3] = test system: rodent; conditions: classification C+/C−; cited from earlier work
[4] = classification M+/M−; cited from earlier work

C=CCc1ccc(OC)c(OC)c1 [TS086, Methyleugenol]
Behavior of gene caused by administration of chemical substance ([1]; Gene No. 154, Rn.185941, group (C)): − | Behavior of gene caused by administration of chemical substance ([1]; Gene No. 533, Rn.106184, group (C)): + | Behavior of gene caused by administration of chemical substance ([1]; Gene No. 725, Rn.108075, group (C)): − | Behavior of gene caused by administration of chemical substance ([1]; Gene No. 813, Rn.201760, group (C)): − | Behavior of gene caused by administration of chemical substance ([1]; Gene No. 893, Rn.164817, group (C)): − | Behavior of gene caused by administration of chemical substance ([1]; Gene No. 1119, Rn.9757, group (C)): − | Behavior of gene caused by administration of chemical substance ([1]; Gene No. 1131, Rn.144946, group (C)): − | Behavior of gene caused by administration of chemical substance ([1]; Gene No. 1163, Rn.11766, group (C)): − | Behavior of gene caused by administration of chemical substance ([1]; Gene No. 1334, Rn.120914, group (C)): − | Behavior of gene caused by administration of chemical substance ([1]; Gene No. 1494, Rn.1430, group (B)): − | Behavior of gene caused by administration of chemical substance ([1]; Gene No. 1562, Rn.14744, group (C)): − | Behavior of gene caused by administration of chemical substance ([1]; Gene No. 1741, Rn.1647, group (C)): − | Behavior of gene caused by administration of chemical substance ([1]; Gene No. 1993, Rn.18728, group (C)): − | Behavior of gene caused by administration of chemical substance ([1]; Gene No. 2026, Rn.167075, group (A)): − | Behavior of gene caused by administration of chemical substance ([1]; Gene No. 2045, Rn.19329, group (B)): − | Behavior of gene caused by administration of chemical substance ([1]; Gene No. 2203, Rn.21240, group (B)): − | Behavior of gene caused by administration of chemical substance ([1]; Gene No. 2494, Rn.23969, group (C)): − | Behavior of gene caused by administration of chemical substance ([1]; Gene No. 2546, Rn.24561, group (C)): − | Behavior of gene caused by administration of chemical substance ([1]; Gene No. 3776, Rn.43232, group (C)): − | Behavior of gene caused by administration of chemical substance ([1]; Gene No. 3929, Rn.4620, group (C)): − | Behavior of gene caused by administration of chemical substance ([1]; Gene No. 4095, Rn.119024, group (C)): − | Behavior of gene caused by administration of chemical substance ([1]; Gene No. 4218, Rn.167075, group (A)): − | Behavior of gene caused by administration of chemical substance ([1]; Gene No. 4846, Rn.144554, group (A)): + | Behavior of gene caused by administration of chemical substance ([1]; Gene No. 4973, Rn.118529, group (C)): − | Behavior of gene caused by administration of chemical substance ([1]; Gene No. 5600, Rn.9836, group (A)): + | Behavior of gene caused by administration of chemical substance ([1]; Gene No. 5634, Rn.9862, group (C)): − | Behavior of gene caused by administration of chemical substance ([1]; Gene No. 5726, Rn.9939, group (D)): − | Behavior of gene caused by administration of chemical substance ([1]; Gene No. 5878, Rn.143213, group (C)): − | Behavior of gene caused by administration of chemical substance ([1]; Gene No. 6026, Rn.167685, group (C)): − | Behavior of gene caused by administration of chemical substance ([1]; Gene No. 6182, Rn.5834, group (A)): + | Behavior of gene caused by administration of chemical substance ([1]; Gene No. 6303, Rn.123063, group (C)): − | Behavior of gene caused by administration of chemical substance ([1]; Gene No. 6620, Rn.120914, group (C)): − | Behavior of gene caused by administration of chemical substance ([1]; Gene No. 6742, Rn.9779, group (C)): − | Liver carcinogenicity [2]: Cr+ | Carcinogenicity [3]: C+ | Mutagenicity by Ames test [4]: M−

Source: patent publication US20110039721A1, “METHOD FOR PREDICTION ABOUT CARCINOGENICITY OF SUBSTANCE IN RODENT” (Chemicals Evaluation and Research Institute, priority 2007, published 2011)
